Data on three molecules can be found in patent publication US8163736B2, “Cytotoxic agents comprising new tomaymycin derivatives” (sanofi-aventis, priority 2006, dated 2012).

Where only a bound is given, the exact number is not on record here.

As a reminder, the IC50 is the point on the concentration scale where inhibition reaches its midpoint. Lower therefore signals greater potency.

What all share (type): cell-based
For one assay, the system named is A549. In words: In vitro potency of tomaymycin derivatives, WST-8 surviving fraction, A549. The note with it: Homo sapiens, 96 h; A549 cells, incubated 4 days at 37° C., WST-8 read at 450 nm. As for the experimental part:
(§1) Samples of free tomaymycin derivative or tomaymycin derivative conjugate are added to a 96-well flat bottomed tissue culture plate and titrated using serial dilutions ranging from 1×10^−12 M to 3×10^−7 M. Antigen positive tumor cells or antigen negative tumor cells are added to the wells in such a way that there are triplicate samples for each drug concentration for each cell line. The plates are incubated at 37° C. in an atmosphere of 5% CO2 for 4 days.
(§2) At the end of the incubation period, 20 μl of the tetrazolium reagent WST-8 (2-(2-methoxy-nitrophenyl)-3-(4-nitrophenyl)-5-(2,4-disulfophenyl)-2-tetrazolium, monosodium salt) is added to each well, and the plates are returned to the incubator for 2 hours. The absorbance in each well of the plates is then measured using the Molecular Devices plate reader at 450 nm. Surviving fraction of cells at each concentration of tomaymycin derivative or conjugate are plotted.

Another assay has as its system MCF7. In words: In vitro potency of tomaymycin derivatives, WST-8 surviving fraction, MCF7. As to conditions: Homo sapiens, 96 h; MCF7 cells, incubated 4 days at 37° C., WST-8 read at 450 nm. As for the experimental part:
as §1, §2
(In general: Formazan colour is commonly taken as a measure of viable cells.)

Another assay deals with KB. Kind of assay: In vitro potency of tomaymycin derivatives, WST-8 surviving fraction, KB. As to conditions: Homo sapiens, 96 h; KB cells, incubated 4 days at 37° C., WST-8 read at 450 nm. As for the experimental part:
as §1, §2

For `C/C=C1\C[C@H]2C=Nc3cc(OCc4cccc(COc5cc6c(cc5OC)C(=O)N5C/C(=C/C)C[C@H]5C=N6)c4)c(OC)cc3C(=O)N2C1` [Example 1, 8,8′-[1,3-benzenediylbis(methylenoxy)]-bis[(S)-2-eth-(E)-ylidene-7-methoxy-1,2,3,11a-tetrahydro-5H-pyrrolo[2,1-c][1,4]benzodiazepin-5-one]], the IC50 in the assay on A549, in the assay with MCF7 and in the assay with KB was under 0.001 nM each time.

For the molecule `C/C=C1\C[C@H]2C=Nc3cc(OCc4cc(COc5cc6c(cc5OC)C(=O)N5C/C(=C/C)C[C@H]5C=N6)cc(OC)c4)c(OC)cc3C(=O)N2C1` [Example 2, 8,8′-[5-methoxy-1,3-benzenediylbis(methylenoxy)]-bis[(S)-2-eth-(E)-ylidene-7-methoxy-1,2,3,11a-tetrahydro-5H-pyrrolo[2,1-c][1,4]benzodiazepin-5-one]], the IC50 in the assay on A549, in the assay on MCF7 and in the assay on KB was under 0.001 nM each time.

As for `C/C=C1\C[C@H]2C=Nc3cc(OCCC(C)CCOc4cc5c(cc4OC)C(=O)N4C/C(=C/C)C[C@H]4C=N5)c(OC)cc3C(=O)N2C1` [Example 5, 8,8′-[3-methyl-1,5-pentanediylbis(oxy)]-bis[(S)-2-eth-(E)-ylidene-7-methoxy-1,2,3,11a-tetrahydro-5H-pyrrolo[2,1-c][1,4]benzodiazepin-5-one]], the IC50 in the assay with A549 was 0.07 nM; with MCF7, 0.1 nM; in the assay with KB, 0.1 nM.
